Values of other authors as cited in US20240264159A1 (priority 2021, published 2024).

Tested on: SARS-CoV-2
Details: Bewley et al., 2021; cited from earlier work

For heparin, the “inhibition of SARS-CoV-2 entry into cells” value is listed as “inhibit SARS-CoV-2 entry into cells”.
